Structures can show the parent of a compound that is named as a salt.
How the values were obtained:
Test in all cases: Fluorescence polarization (FP) PKC inhibition assay, Protein Kinase C Assay Kit, Red (Invitrogen)
Assay type in all cases: biochemical
PKC epsilon = target: T1, PKC epsilon (Homo sapiens, UniProt Q02156); settings: enzyme 10 ng/ml, ATP 2.5 μM, substrate […] 1 μM
T1 construct: purchased Invitrogen 6906
T1 sequence (Q02156 1-737): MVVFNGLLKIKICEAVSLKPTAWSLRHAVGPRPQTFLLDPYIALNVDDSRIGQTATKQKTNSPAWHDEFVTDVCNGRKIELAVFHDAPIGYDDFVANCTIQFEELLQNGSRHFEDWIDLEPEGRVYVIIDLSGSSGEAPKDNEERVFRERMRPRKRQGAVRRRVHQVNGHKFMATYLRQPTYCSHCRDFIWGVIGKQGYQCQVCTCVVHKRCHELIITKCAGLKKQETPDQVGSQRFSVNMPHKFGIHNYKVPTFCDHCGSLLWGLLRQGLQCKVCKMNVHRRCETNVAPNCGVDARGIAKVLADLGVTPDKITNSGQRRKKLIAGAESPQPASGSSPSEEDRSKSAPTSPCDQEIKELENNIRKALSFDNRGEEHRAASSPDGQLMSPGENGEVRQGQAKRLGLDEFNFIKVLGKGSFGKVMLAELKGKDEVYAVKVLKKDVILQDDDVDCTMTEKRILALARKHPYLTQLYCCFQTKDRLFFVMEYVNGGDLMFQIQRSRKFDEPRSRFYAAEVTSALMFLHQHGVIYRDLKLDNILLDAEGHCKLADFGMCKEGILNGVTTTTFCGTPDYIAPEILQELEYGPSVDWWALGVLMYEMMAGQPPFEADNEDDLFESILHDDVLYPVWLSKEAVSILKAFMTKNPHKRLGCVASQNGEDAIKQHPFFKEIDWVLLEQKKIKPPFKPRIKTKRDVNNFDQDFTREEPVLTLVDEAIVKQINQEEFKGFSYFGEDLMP
Method: (§1) The substrate used was […]
(§2) To perform the assay, 2 μl of a solution of the compound to be tested in DMSO (at each concentration) was added to 6 μl of a solution of the enzyme in 10 mM HEPES, 5 mM dithiotreitol, 0.1% Triton X-100, pH 7,4.
(§3) After incubating for 30 minutes at room temperature, 4 μl of a mixture of ATP and the protein substrate in 60 mM HEPES (pH7.4), 15 mM MgCl2, 0.3 mM CaCl2, 0.06% NP40 was added.
(§4) After incubating for 80 minutes at room temperature, 3 μl of a mix solution of 500 mM EDTA (stop solution) and the Rhodamine-based PKC Red Tracer (from the Protein Kinase C Assay Kit) in BGG/phosphate buffer (pH7.4) with 0.02% NaN3 and 0.1% Triton X-100 was added and 5 μl of a the Anti-Phosphoserine antibody (also from the Protein Kinase C Assay Kit) in BGG/phosphate buffer (pH7.4) with 0.02% NaN3.
(§5) The results were fitted to a curve using the XL-Fit algorithm and IC50 values were calculated for each fitted curve, again using the XL-Fit algorithm.

PKC gamma = target: T2, PKC gamma (Homo sapiens, UniProt P05129); settings: enzyme 20 ng/ml, ATP 2.5 μM, substrate […] 1 μM
T2 construct: purchased Invitrogen 9343
Method: as §1, §2, §3, §4, §5

PKC theta = target: T3, PKC theta (Homo sapiens, UniProt Q04759); settings: enzyme 20 ng/ml, ATP 2.5 μM, substrate […] 1 μM
T3 construct: purchased Invitrogen 7101
T3 sequence (Q04759 whole entry): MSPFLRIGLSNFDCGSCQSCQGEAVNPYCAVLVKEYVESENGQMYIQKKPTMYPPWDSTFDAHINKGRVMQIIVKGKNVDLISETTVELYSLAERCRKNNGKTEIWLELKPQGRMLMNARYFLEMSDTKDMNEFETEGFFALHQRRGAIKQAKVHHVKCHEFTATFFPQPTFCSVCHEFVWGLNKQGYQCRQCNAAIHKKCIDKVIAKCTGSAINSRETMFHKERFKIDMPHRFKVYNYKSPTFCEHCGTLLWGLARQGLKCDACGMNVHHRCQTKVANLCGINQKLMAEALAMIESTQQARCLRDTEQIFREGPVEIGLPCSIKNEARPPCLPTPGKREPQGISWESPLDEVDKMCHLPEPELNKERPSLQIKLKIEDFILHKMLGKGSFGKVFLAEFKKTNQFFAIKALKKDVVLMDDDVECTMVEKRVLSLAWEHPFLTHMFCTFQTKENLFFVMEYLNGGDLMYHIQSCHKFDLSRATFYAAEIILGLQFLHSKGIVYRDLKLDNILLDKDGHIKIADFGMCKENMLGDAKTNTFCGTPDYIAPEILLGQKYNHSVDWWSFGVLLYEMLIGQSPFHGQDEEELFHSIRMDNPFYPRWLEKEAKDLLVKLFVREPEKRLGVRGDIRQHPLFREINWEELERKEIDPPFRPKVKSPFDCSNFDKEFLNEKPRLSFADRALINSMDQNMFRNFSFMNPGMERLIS
Method: as §1, §2, §3, §4, §5

PKC zeta = target: T4, PKC zeta (Homo sapiens, UniProt Q05513); settings: enzyme 20 ng/ml, ATP 2.5 μM, substrate […] 1 μM
T4 construct: purchased Invitrogen 9232
T4 sequence (Q05513 1-592): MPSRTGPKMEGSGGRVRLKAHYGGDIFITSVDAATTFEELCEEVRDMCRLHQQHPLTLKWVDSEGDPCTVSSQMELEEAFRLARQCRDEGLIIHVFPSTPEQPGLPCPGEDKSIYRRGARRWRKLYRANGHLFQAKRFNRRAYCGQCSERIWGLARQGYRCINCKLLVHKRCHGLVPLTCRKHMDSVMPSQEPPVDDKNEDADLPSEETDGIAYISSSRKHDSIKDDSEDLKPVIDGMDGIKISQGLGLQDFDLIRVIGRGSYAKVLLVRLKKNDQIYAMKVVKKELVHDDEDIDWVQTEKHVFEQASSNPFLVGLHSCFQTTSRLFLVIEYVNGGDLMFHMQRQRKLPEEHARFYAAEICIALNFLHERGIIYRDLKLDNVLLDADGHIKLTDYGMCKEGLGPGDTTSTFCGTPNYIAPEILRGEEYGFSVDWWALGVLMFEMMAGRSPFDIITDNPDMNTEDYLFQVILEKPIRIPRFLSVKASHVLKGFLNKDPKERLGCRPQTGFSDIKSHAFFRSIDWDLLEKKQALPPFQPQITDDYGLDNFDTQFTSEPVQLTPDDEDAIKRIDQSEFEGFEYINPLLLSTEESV
Method: as §2, §3, §4, §5

Compound | IC50 (PKC epsilon) [µM] | IC50 (PKC gamma) [µM] | IC50 (PKC theta) [µM] | IC50 (PKC zeta) [µM]
NCc1ccc(C(=O)Nc2ccncn2)cc1 [Compound 21, 4-aminomethyl-N-pyrimidin-4-yl-benzamide dihydrochloric acid salt] | 34.4 | > 100 | 87.2 | > 100
NCCCCCC(=O)Nc1ccncc1 [Compound 1, 6-Amino-hexanoic acid pyridine-4-ylamide dihydrochloric acid salt] | > 100 | > 100 | > 100 | > 100
NC[C@H]1CC[C@H](C(=O)NCc2ccncc2)CC1 [Compound 5, Trans-4-aminomethyl-cyclohexanecarboxylic acid (pyridine-4-ylmethyl)-amide] | > 100 | > 100 | > 100 | > 100
CC(=O)NCc1ccc(C(=O)Nc2ccncc2)cc1 [Compound 16] | > 100 | > 100 | > 100 | > 100
O=C(Nc1ccncc1)c1ccc2c(c1)CCNC2 [Compound 32, 1,2,3,4-tetrahydro-isoquinoline-6-carboxylic acid pyridinedin-4-yl-amide dihydrochloric acid salt] | 30.5 | > 100 | 31.6 | > 100
NC[C@H]1CC[C@H](C(=O)Nc2ccccc2)CC1 [Compound 3, Trans-4-aminomethyl-cyclohexanecarboxylic acid phenylamide hydrochloric acid salt] | > 100 | 90.5 | > 100 | 40.3
NCc1ccc(-c2nc3ccncc3[nH]2)cc1 [Compound 14, 4-(3H-imidazo[4,5-c]pyridine-2-yl)-benzylamine] | > 100 | > 100 | > 100 | > 100

Now those with a lower IC50 (PKC epsilon), led by results:

IC50 (PKC epsilon) [µM] | IC50 (PKC gamma) [µM] | IC50 (PKC theta) [µM] | IC50 (PKC zeta) [µM] | Compound
9.9 | 21.8 | 8.6 | > 100 | O=C(Nc1ccnc2[nH]ccc12)c1ccc2c(c1)CCNC2 [Compound 43]
0.3 | 17.3 | 0.63 | > 100 | NC(c1ccc(C(=O)Nc2ccnc3[nH]ccc23)cc1)C1CCCC1 (stereo not shown) [Compound 42]
16 | > 100 | 9.01 | 45.9 | CC(N)c1ccc(C(=O)Nc2ccncc2)s1 (racemic) [Compound 22, 5-(1-amino-ethyl)-thiophene-2-carboxylic acid pyridinedin-4-ylamide]
6.23 | > 100 | 9.14 | 51.4 | NCc1ccc(C(=O)Nc2ccncc2)cc1 [Compound 20, 4-aminomethyl-N-pyridin-4-yl-benzamide dihydrochloric acid salt]
2.5 | > 100 | 7.8 | 6.4 | CC(N)c1ccc(C(=O)Nc2ccncc2)c2ccccc12 (stereo not shown) [Compound 38, 4-(1-amino-ethyl)-naphthalene-1-carboxylic acid pyridinedin-4-ylamide dihydrochloric acid salt]
9.5 | > 100 | 28.9 | > 100 | NC(c1ccc(F)cc1)c1ccc(C(=O)Nc2ccncc2)cc1 (stereo not shown) [Compound 36, 4-[1-amino-(4-fluorophenyl)-methyl]-N-pyridin-4-yl-benzamide dihydrochloric acid salt]
6.1 | > 100 | 13.7 | > 100 | NC1CCCc2cc(C(=O)Nc3ccncc3)ccc21 (stereo not shown) [Compound 29]
9.8 | > 100 | 17.2 | > 100 | O=C(Nc1ccncc1)c1ccc(C2CCCN2)cc1 (stereo not shown) [Compound 30, N-pyridin-4-yl-4-pyrrolidin-2-yl-benzamide dihydrochloric acid salt]
5.12 | > 100 | 7.35 | 24.3 | NC[C@H]1CC[C@H](C(=O)Nc2ccncc2)CC1 [Compound 19, Trans-4-aminomethyl-cyclohexanecarboxylic acid pyridin-4-ylamide]

Reference: patent US20070191420A1, “Kinase inhibitors” (Devgen NV, priority 2004, published 2007)
